IC50 and Ki data for 6 molecules are collected here from ChEMBL document CHEMBL1909046, “DrugMatrix in vitro pharmacology data”.

The target in data set [1] is Tyrosine-protein kinase Lck (Homo sapiens, UniProt P06239). Put plainly: DRUGMATRIX: Protein Tyrosine Kinase, LCK enzyme inhibition (substrate: Poly(Glu:Tyr)). The following applies: insect cells; Not Active = under 50% inhibition at 10 µM. The format is cell-based, Insect cells.
The target of another data set is T1, Calcitonin receptor (Homo sapiens, UniProt P30988). Note: in other assays of this panel Not Active means under 50% inhibition at 10 µM.
T1 sequence (P30988 whole entry): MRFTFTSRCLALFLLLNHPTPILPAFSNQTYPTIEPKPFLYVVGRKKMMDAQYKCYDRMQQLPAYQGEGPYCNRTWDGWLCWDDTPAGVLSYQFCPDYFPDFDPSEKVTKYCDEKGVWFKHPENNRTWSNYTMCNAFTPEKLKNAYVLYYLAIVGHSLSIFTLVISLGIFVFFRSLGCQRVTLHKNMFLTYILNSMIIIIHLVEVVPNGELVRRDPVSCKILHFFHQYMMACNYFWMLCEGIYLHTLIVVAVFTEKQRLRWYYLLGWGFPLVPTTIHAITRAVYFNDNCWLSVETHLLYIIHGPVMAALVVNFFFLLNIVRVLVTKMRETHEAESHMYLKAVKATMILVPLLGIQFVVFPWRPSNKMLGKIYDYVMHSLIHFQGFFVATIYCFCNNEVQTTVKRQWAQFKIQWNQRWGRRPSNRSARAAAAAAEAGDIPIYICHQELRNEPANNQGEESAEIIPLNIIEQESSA
The format is cell membranes, Membrane. The conditions noted are these: t47d.

The target of the next data set is Vasopressin V1a receptor (Homo sapiens, UniProt P37288). The format is cell membranes, Membrane. The conditions noted are these: hek293. Note: in other assays of this panel Not Active means under 50% inhibition at 10 µM.
Vasopressin V1a receptor, sequence (P37288 whole entry): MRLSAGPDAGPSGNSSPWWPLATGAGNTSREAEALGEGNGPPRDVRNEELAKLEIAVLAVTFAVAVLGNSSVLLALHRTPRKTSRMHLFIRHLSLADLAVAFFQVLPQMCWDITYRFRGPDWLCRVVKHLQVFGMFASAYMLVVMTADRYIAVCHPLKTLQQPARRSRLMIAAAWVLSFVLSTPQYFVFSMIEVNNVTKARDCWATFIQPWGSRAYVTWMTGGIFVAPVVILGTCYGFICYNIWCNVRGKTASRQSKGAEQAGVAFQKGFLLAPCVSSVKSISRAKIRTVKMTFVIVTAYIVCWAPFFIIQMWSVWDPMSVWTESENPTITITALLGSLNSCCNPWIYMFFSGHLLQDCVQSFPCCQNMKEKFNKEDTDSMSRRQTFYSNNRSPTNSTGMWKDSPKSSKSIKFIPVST
Data set [2] addresses T2, 5-hydroxytryptamine receptor 1A (Rattus norvegicus, UniProt P19327).
T2 sequence (P19327 whole entry): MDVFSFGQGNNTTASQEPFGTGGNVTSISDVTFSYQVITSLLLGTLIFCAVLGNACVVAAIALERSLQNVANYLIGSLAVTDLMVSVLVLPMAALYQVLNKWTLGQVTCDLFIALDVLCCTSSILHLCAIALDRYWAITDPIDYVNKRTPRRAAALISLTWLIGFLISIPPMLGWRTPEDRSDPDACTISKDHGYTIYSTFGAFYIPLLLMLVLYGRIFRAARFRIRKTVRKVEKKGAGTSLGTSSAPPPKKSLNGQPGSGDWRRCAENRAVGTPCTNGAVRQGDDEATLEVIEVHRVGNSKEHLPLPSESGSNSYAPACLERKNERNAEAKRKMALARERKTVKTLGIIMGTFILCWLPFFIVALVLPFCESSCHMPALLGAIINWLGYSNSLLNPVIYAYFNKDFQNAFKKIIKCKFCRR
The format is cell membranes, CHO-K1, Membrane. The conditions noted are these: cho-k1.

Another data set deals with T3, Androgen receptor (Rattus norvegicus, UniProt P15207).
T3 sequence (P15207 whole entry): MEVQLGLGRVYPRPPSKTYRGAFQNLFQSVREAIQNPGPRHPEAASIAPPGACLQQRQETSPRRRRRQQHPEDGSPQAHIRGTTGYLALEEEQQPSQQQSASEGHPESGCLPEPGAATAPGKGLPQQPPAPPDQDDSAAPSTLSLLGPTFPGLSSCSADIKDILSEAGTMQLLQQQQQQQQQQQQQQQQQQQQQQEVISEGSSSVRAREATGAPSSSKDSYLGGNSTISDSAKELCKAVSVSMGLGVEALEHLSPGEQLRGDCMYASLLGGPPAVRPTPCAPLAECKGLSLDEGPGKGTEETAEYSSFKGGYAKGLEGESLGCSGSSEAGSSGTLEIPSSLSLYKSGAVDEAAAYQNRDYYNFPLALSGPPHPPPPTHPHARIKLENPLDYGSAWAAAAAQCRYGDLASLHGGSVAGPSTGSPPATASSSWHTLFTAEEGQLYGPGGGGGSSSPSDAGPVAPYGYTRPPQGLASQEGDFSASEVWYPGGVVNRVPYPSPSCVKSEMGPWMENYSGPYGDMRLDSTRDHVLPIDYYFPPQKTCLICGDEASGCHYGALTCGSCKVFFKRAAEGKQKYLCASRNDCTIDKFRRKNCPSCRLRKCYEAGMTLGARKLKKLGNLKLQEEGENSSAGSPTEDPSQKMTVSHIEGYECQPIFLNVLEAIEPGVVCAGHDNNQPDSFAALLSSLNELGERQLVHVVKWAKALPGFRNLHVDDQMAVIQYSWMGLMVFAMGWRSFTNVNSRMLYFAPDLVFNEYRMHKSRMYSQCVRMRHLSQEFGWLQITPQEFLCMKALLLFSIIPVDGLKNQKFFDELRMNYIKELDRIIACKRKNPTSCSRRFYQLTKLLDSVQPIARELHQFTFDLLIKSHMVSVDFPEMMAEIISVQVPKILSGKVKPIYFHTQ

Data set [3] in a line: DRUGMATRIX: Serotonin (5-Hydroxytryptamine) 5-HT3 radioligand binding (ligand: [3H] GR-65630). The format is cell membranes, Membrane. The conditions noted are these: hek293; Not Active = under 50% inhibition at 10 µM.
Another data set deals with Cytochrome P450 2D6 (Homo sapiens, UniProt P10635). The conditions noted are these: bti-tn-5b1-4.
Cytochrome P450 2D6, sequence (P10635 whole entry): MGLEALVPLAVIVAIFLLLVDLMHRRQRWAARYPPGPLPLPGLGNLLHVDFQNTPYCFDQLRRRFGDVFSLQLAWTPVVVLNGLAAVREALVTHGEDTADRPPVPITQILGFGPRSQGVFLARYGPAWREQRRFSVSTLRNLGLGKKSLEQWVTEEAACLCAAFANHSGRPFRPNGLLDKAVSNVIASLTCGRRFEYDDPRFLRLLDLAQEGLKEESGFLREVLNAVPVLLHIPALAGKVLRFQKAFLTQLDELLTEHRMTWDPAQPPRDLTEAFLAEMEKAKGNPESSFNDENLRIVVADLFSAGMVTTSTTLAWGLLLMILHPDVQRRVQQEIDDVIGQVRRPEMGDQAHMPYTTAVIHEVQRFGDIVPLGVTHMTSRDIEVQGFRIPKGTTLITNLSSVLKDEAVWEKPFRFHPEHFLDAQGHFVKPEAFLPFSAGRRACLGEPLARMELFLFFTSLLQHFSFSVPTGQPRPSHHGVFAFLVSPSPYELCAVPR
Data set [4] addresses cGMP-specific 3',5'-cyclic phosphodiesterase (Homo sapiens, UniProt O76074). In words: DRUGMATRIX: Phosphodiesterase PDE5 enzyme inhibition (substrate: [3H]cGMP + cGMP). The format is tissue-based, Platelet. The conditions noted are these: Not Active = under 50% inhibition at 10 µM.
Another data set addresses Melanocortin receptor 4 (Homo sapiens, UniProt P32245). The format is cell membranes, Membrane. The following applies: hek293.

Melanocortin receptor 4, sequence (P32245 whole entry): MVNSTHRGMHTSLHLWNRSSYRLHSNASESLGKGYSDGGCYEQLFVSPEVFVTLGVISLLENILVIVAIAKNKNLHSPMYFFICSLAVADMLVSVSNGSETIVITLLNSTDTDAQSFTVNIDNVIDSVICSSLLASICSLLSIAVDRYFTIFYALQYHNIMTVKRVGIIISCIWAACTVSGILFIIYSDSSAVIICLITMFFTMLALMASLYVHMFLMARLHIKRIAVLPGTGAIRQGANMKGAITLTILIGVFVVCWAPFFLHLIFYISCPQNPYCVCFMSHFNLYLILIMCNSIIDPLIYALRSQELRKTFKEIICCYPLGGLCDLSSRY
Tyrosine-protein kinase Lck, sequence (P06239 whole entry): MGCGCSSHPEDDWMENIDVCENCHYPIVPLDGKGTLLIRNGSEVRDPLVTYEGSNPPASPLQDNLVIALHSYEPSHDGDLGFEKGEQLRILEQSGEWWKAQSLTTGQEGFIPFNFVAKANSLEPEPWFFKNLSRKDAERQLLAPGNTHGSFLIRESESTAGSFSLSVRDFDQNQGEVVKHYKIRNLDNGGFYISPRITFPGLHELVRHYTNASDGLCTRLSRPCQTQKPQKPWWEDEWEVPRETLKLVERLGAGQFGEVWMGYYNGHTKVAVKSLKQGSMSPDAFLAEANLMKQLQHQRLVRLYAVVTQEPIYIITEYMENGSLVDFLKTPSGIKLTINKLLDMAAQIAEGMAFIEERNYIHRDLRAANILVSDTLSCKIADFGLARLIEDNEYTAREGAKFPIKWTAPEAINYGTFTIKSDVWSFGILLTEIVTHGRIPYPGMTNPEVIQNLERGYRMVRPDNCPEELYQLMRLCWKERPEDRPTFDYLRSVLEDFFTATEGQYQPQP

By IC50 is commonly meant the point on the concentration scale where inhibition reaches its midpoint. On to `COc1ccc2cc(CC(=O)O)ccc2c1`, for which the IC50 entry (in [1]; at Calcitonin receptor; on Vasopressin V1a receptor; in data set [2]; at Androgen receptor; in data set [3]) was “Not Active” each time. Moreover, the IC50 entry (against Cytochrome P450 2D6; in data set [4] (platelet); at Melanocortin receptor 4) was “Not Active” in each case. In addition, the Ki entry (in [3]; on Cytochrome P450 2D6) was “Not Active” in each case.

Take `C=C1C(=O)O[C@@H]2C3O[C@]3(C)CC/C=C(\C)CC[C@@H]12` (some centres undefined): the concentration for half-maximal inhibition (IC50) entry (in data set [1]; on Calcitonin receptor; against Vasopressin V1a receptor; in data set [2]; at Androgen receptor; in data set [3]) was “Not Active” in each case. Also, the half-maximal inhibitory concentration (IC50) result (on Cytochrome P450 2D6; in data set [4] (platelet); at Melanocortin receptor 4) was “Not Active” in each case. Besides, the Ki entry (in data set [3]; on Cytochrome P450 2D6) was “Not Active” throughout.

Turning to `COc1ccc2c(c1)c(CC(=O)OCC(=O)O)c(C)n2C(=O)c1ccc(Cl)cc1` [ACEMETACIN], the half-inhibitory concentration (IC50) result (in [1]; on Calcitonin receptor; against Vasopressin V1a receptor; in data set [2]; against Androgen receptor; in [3]) was “Not Active” each time. Moreover, the concentration for half-maximal inhibition (IC50) result (at Cytochrome P450 2D6; in [4] (platelet); at Melanocortin receptor 4) was “Not Active” each time. The Ki result (in [3]; on Cytochrome P450 2D6) was “Not Active” each time.

In the case of `O=c1cc(-c2ccccc2)oc2c1ccc1ccccc12` [ALPHA-NAPHTHOFLAVONE], the half-maximal inhibitory concentration (IC50) entry (in data set [1]; on Calcitonin receptor; on Vasopressin V1a receptor; in data set [2]; at Androgen receptor; in data set [3]) was “Not Active” in each case. Also, the IC50 entry at Cytochrome P450 2D6 was “Not Active”; in data set [4] (read-out: IC50), 2300 nM; against Melanocortin receptor 4, “Not Active”. Moreover, the Ki result (in data set [3]; at Cytochrome P450 2D6) was “Not Active” throughout.

`NCC[C@H](O)C(=O)N[C@@H]1C[C@H](N)[C@@H](O[C@H]2O[C@H](CN)[C@@H](O)[C@H](O)[C@H]2O)[C@H](O)[C@H]1O[C@H]1O[C@H](CO)[C@@H](O)[C@H](N)[C@H]1O` [AMIKACIN]: the half-maximal inhibitory concentration (IC50) entry (in data set [1]; on Calcitonin receptor; on Vasopressin V1a receptor; in [2]; against Androgen receptor; in data set [3]) was “Not Active” throughout. Further, the IC50 result (at Cytochrome P450 2D6; in data set [4] (platelet); on Melanocortin receptor 4) was “Not Active” in each case. Further, the Ki entry (in data set [3]; at Cytochrome P450 2D6) was “Not Active” throughout.

In the case of `Fc1ccc([C@@H]2CCNC[C@H]2COc2ccc3c(c2)OCO3)cc1` [PAROXETINE], the IC50 result (in data set [1]; at Calcitonin receptor; against Vasopressin V1a receptor; in data set [2]; against Androgen receptor; in data set [3]) was “Not Active” each time. In addition, the 50% inhibitory concentration (IC50) entry (in data set [4] (platelet); at Melanocortin receptor 4) was “Not Active” throughout. Further, the Ki entry in [3] is on record as “Not Active”.
